Reference: patent US6737383B1, “Herbicidal oxadiazolidines” (priority 1999, dated 2004)

Experiments:
[1] = system: bedstraw; assay: Test B pre/postemergence bedstraw; type: in vivo, Galium aparine
Outline: (§1)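 Herbicidal effect was estimated by eye on a ten-point control scale after plants spent twelve to sixteen days in a greenhouse following soil or foliar treatment. Foliar sprays targeted plants at one to four leaves; all doses were formulated in a non-phytotoxic solvent with surfactant.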

[2] = system: blackgrass; assay: Test B pre/postemergence blackgrass; type: in vivo, Alopecurus myosuroides
Outline: as §1

[3] = system: surinam grass; assay: Test B pre/postemergence surinam grass; type: in vivo, Brachiaria decumbens
Outline: as §1

[4] = system: cocklebur; assay: Test B pre/postemergence cocklebur; type: in vivo, Xanthium strumarium
Outline: as §1

[5] = system: giant foxtail; assay: Test B pre/postemergence giant foxtail; type: in vivo, Setaria faberii
Outline: as §1

[6] = system: morningglory; assay: Test B pre/postemergence morningglory; type: in vivo, Ipomoea hederacea
Outline: as §1

[7] = system: pigweed; assay: Test B pre/postemergence pigweed; type: in vivo, Amaranthus retroflexus
Outline: as §1

[8] = system: rape; assay: Test B pre/postemergence rape; type: in vivo, Brassica napus
Outline: as §1

[9] = system: soybean; assay: Test B pre/postemergence soybean; type: in vivo, Glycine max
Outline: as §1

[10] = system: sugar beet; assay: Test B pre/postemergence sugar beet; type: in vivo, Beta vulgaris
Outline: as §1

[11] = system: wheat; assay: Test B pre/postemergence wheat; type: in vivo, Triticum aestivum
Outline: as §1

[12] = system: wild oat; assay: Test B pre/postemergence wild oat; type: in vivo, Avena fatua
Outline: as §1

[13] = system: purple nutsedge; assay: Test B pre/postemergence purple nutsedge; type: in vivo, Cyperus rotundus
Outline: as §1

[14] = system: smallflower flatsedge; assay: Test B flood test smallflower flatsedge; type: in vivo, Cyperus difformis
Outline: (§2)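 Flood test on plants grown to the 2-leaf stage; treated plants kept in greenhouse twelve to sixteen days, then visually rated against controls on a 0 (no effect) to 10 (complete control) scale.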

[15] = system: duck salad; assay: Test B flood test duck salad; type: in vivo, Heteranthera limosa
Outline: as §2

[16] = system: bamyardgrass; assay: Test B flood test barnyardgrass; type: in vivo, Echinochloa crus-galli
Outline: as §2

[17] = Preemergence, Rate 62 g/ha, scale of 0 to 10 where 0 is no effect and 10 is complete control
[18] = Preemergence, Rate 125 g/ha, 0 is no effect, 10 is complete control
[19] = Preemergence, Rate 250 g/ha, scale 0 to 10, 0 is no effect, 10 is complete control
[20] = Preemergence, Rate 500 g/ha, scale of 0 to 10 where 0 is no effect and 10 is complete control
[21] = Rate 62 g/ha, Postemergence, scale of 0 to 10 where 0 is no effect and 10 is complete control
[22] = Rate 125 g/ha, Postemergence, scale 0 to 10
[23] = Rate 500 g/ha, Postemergence, scale 0 to 10
[24] = Rate 62 g/ha, Postemergence section, flood test species, scale of 0 to 10 where 0 is no effect and 10 is complete control
[25] = Rate 125 g/ha, listed under Postemergence (flood test species), scale 0 to 10
[26] = Rate 250 g/ha, Postemergence section, flood test species
[27] = Rate 500 g/ha, listed under Postemergence (flood test species), scale 0 to 10

C=C(C)CCn1c(=O)on(C(=O)N(c2ccc(F)cc2)C(C)C)c1=O [Compound 199]
2: Bedstraw plant response rating [1, 23] | Giant foxtail plant response rating [5, 22] | Plant response rating (0 to 10; 0 is no effect, 10 is complete control), Giant foxtail ([5]; Rate 250 g/ha, Postemergence) | Plant response rating (0 to 10; 0 is no effect, 10 is complete control), Redroot pigweed ([7]; Rate 250 g/ha, Postemergence) | Soybean plant response rating [9, 21] | Soybean plant response rating [9, 22] | Sugarbeets plant response rating [10, 23] | Wheat plant response rating [11, 22] | Plant response rating (0 to 10; 0 is no effect, 10 is complete control), S. Flatsedge [14, 26] | Ducksalad plant response rating [15, 27]
9: Plant response rating (0 to 10; 0 is no effect, 10 is complete control), Blackgrass ([2]; Rate 250 g/ha, Postemergence) | Blackgrass plant response rating [2, 23] | Plant response rating, B. signalgrass [3, 20]
3: Cocklebur plant response rating [4, 23] | Plant response rating (0 to 10; 0 is no effect, 10 is complete control), Wheat ([11]; Rate 250 g/ha, Postemergence)
10: Blackgrass plant response rating (0 to 10 scale) [2, 18] | Blackgrass plant response rating [2, 19] | Plant response rating, Blackgrass [2, 20] | Giant foxtail plant response rating (0 to 10 scale) [5, 18] | Giant foxtail plant response rating [5, 19] | Plant response rating, Giant foxtail [5, 20] | Redroot pigweed plant response rating [7, 19] | Plant response rating, Redroot pigweed [7, 20] | Plant response rating, Nutsedge [13, 20]
0: Bedstraw plant response rating [1, 17] | Bedstraw plant response rating (0 to 10 scale) [1, 18] | Bedstraw plant response rating [1, 19] | Plant response rating, Bedstraw [1, 20] | Bedstraw plant response rating [1, 21] | Bedstraw plant response rating [1, 22] | Plant response rating (0 to 10; 0 is no effect, 10 is complete control), Bedstraw ([1]; Rate 250 g/ha, Postemergence) | Blackgrass plant response rating [2, 21] | B. signalgrass plant response rating [3, 17] | B. signalgrass plant response rating [3, 21] | B. signalgrass plant response rating ([3]; Rate 125 g/ha, Postemergence, scale 0 (no effect) to 10 (complete control)) | Plant response rating, B. signalgrass ([3]; Rate 250 g/ha, Postemergence, scale 0 to 10, 0 is no effect, 10 is complete control) | Cocklebur plant response rating [4, 17] | Cocklebur plant response rating (0 to 10 scale) [4, 18] | Cocklebur plant response rating [4, 19] | Plant response rating, Cocklebur [4, 20] | Cocklebur plant response rating [4, 21] | Cocklebur plant response rating [4, 22] | Plant response rating (0 to 10; 0 is no effect, 10 is complete control), Cocklebur ([4]; Rate 250 g/ha, Postemergence) | Giant foxtail plant response rating [5, 21] | Morningglory plant response rating [6, 17] | Morningglory plant response rating (0 to 10 scale) [6, 18] | Morningglory plant response rating [6, 19] | Plant response rating, Morningglory [6, 20] | Redroot pigweed plant response rating [7, 21] | Redroot pigweed plant response rating [7, 22] | Rape plant response rating [8, 17] | Rape plant response rating (0 to 10 scale) [8, 18] | Rape plant response rating [8, 19] | Plant response rating, Rape [8, 20] | Rape plant response rating [8, 21] | Rape plant response rating [8, 22] | Plant response rating (0 to 10; 0 is no effect, 10 is complete control), Rape ([8]; Rate 250 g/ha, Postemergence) | Rape plant response rating [8, 23] | Soybean plant response rating [9, 17] | Soybean plant response rating (0 to 10 scale) [9, 18] | Soybean plant response rating [9, 19] | Plant response rating, Soybean [9, 20] | Sugarbeets plant response rating [10, 21] | Sugarbeets plant response rating [10, 22] | Plant response rating (0 to 10; 0 is no effect, 10 is complete control), Sugarbeets ([10]; Rate 250 g/ha, Postemergence) | Wheat plant response rating [11, 17] | Wheat plant response rating [11, 19] | Plant response rating, Wheat [11, 20] | Wheat plant response rating [11, 21] | Wild oats plant response rating [12, 17] | Wild oats plant response rating [12, 21] | Wild oats plant response rating [12, 22] | Plant response rating (0 to 10; 0 is no effect, 10 is complete control), Wild oats ([12]; Rate 250 g/ha, Postemergence) | Nutsedge plant response rating [13, 17] | Nutsedge plant response rating (0 to 10 scale) [13, 18] | Nutsedge plant response rating [13, 19] | Nutsedge plant response rating [13, 21] | Nutsedge plant response rating [13, 22] | Plant response rating (0 to 10; 0 is no effect, 10 is complete control), Nutsedge ([13]; Rate 250 g/ha, Postemergence) | Nutsedge plant response rating [13, 23] | S. Flatsedge plant response rating [14, 24] | S. Flatsedge plant response rating [14, 25] | Ducksalad plant response rating [15, 24] | Ducksalad plant response rating [15, 25] | Plant response rating (0 to 10; 0 is no effect, 10 is complete control), Ducksalad [15, 26] | Barnyardgrass plant response rating [16, 24] | Barnyardgrass plant response rating [16, 25] | Plant response rating (0 to 10; 0 is no effect, 10 is complete control), Barnyardgrass [16, 26]
7: Giant foxtail plant response rating [5, 17] | Giant foxtail plant response rating [5, 23] | Redroot pigweed plant response rating [7, 17] | Redroot pigweed plant response rating (0 to 10 scale) [7, 18] | Plant response rating (0 to 10; 0 is no effect, 10 is complete control), Soybean ([9]; Rate 250 g/ha, Postemergence) | Soybean plant response rating [9, 23] | Plant response rating, Wild oats [12, 20] | S. Flatsedge plant response rating [14, 27]
1: B. signalgrass plant response rating (0 to 10 scale) [3, 18]
5: Sugarbeets plant response rating (0 to 10 scale) [10, 18] | Sugarbeets plant response rating [10, 19]
4: Blackgrass plant response rating [2, 22] | Morningglory plant response rating [6, 21] | Morningglory plant response rating [6, 22] | Plant response rating (0 to 10; 0 is no effect, 10 is complete control), Morningglory ([6]; Rate 250 g/ha, Postemergence) | Sugarbeets plant response rating [10, 17] | Wild oats plant response rating [12, 19]
6: Blackgrass plant response rating [2, 17] | B. signalgrass plant response rating [3, 19] | Redroot pigweed plant response rating [7, 23] | Plant response rating, Sugarbeets [10, 20]
8: Morningglory plant response rating [6, 23] | Barnyardgrass plant response rating [16, 27]
